Source: patent publication US8361998B2, “Compounds and their use as IKACh blockers” (AstraZeneca AB, priority 2010, dated 2013)
Where a name gives a salt, the structure may show the parent alone.

Tested on: anaesthetized rabbits subjected to vagal stimulation
Assay: In vivo PD model, anaesthetized rabbits with vagal stimulation: right atrial effective refractory period (RAERP), QT
Parameters: species or system rabbit
Description: Rabbits were anaesthetized using ketalar and domitor (2.5 and 0.07 mg/kg, respectively) as an i.v. bolus followed by a maintenance i.v. infusion (11 and 0.33 mg/kg/h, respectively) and ventilated with room air. Two percutaneous polyethylene catheter (Venflon 0.8 mm, Viggo, Helsingborg, Sweden) for administration of anaesthetics and drug infusions, respectively, were inserted into marginal veins on the right and left ear. A polyethylene catheter (Intramedic PE 160 Clay Adams, Becton Dickinson, Sparks, Md., USA) was inserted into the left carotid artery and advanced to the level of the aortic arch for blood pressure recording (by means of a pressure transducer, Peter von Berg Medizintechnik Gmbh, Kirchseeon/Englharting, Germany) and for blood sampling. For recording of right atrial electrogram and for atrial pacing, a 4F quadripolar electrophysiological recording catheters (Electrophysiology catheter-Deflectable tip, Biosense Webster Inc, Johnson & Johnson, Diamond Bar, Calif., USA) was advanced into the right jugular vein and positioned high up in the right atrium (HRA). Electrodes were advanced via introducers (4F Fast-Cath haemostasis introducer, ST. Jude Medical, DAIG Division, Inc. Minnetonka, Minn., USA) correctly positioned through fluoroscopic guidance. The effective refractory period in the right atrium (RAERP) was determined at a stimulation current strength approximately 20% above the threshold for pacing the atria. A custom-made PC-based (AstraZeneca R&D, Mölndal, Sweden) programmable stimulator and constant current pulse generator (WPI Stimulus Isolator, World Precision Instruments, Sarasota, Fla., USA) were used for stimulation at one or two predefined basic cycle lengths (S1) of for example 200 and 300 ms. A premature extra stimulus (S2) was introduced after every 10th paced basic beat with increments of 2 ms until capture. […] For vagal stimulation, both vagal nerves were ligated and cut in the cervical region and propranolol (0.5 mg/kg) was administrated as an i.v. infusion to decrease sympathetic influence. Electrodes were inserted in the middle of the right vagal nerve to stimulate the efferent vagi. The RAERP was determined without or with vagal stimulation at 50% of maximal vagal response. Subsequent infusion of compound aimed to increase the RAERP with 20 ms during the first dose of two consecutive doses. The drug infusion was followed by a washout period of approximately 30-60 min. QT prolongation was recorded from surface electrocardiography (ECG). The effect on RAERP was measured several times during infusion and washout and blood samples were taken at each measurements. Effect and plasma concentration data was analysed accounting for a concentration-effect-time delay and the unbound plasma concentration (Ceu) increasing the RAERP by 20 ms was calculated.

SMILES | Ceu 20 ms [µM]
CC(C)C[C@@H](CN1CC(O)C1)N(C)C(=O)c1ccc(C#N)cc1F [Example 38.6, 4-Cyano-2-fluoro-N-[(2S)-1-(3-hydroxyazetidin-1-yl)-4-methylpentan-2-yl]-N-methylbenzamide] | 0.72
CC(C)[C@@H](CN1CC(O)C1)N(C)C(=O)c1ccc(Cl)cc1 [Example 6.2, (S)-4-Chloro-N-(1-(3-hydroxyazetidin-1-yl)-3-methylbutan-2-yl)-N-methylbenzamide] | 0.40
CCC[C@@H](CN1CC(O)C1)N(C)C(=O)c1ccc(F)cc1 [Example 8.6, (S)-4-Fluoro-N-(1-(3-hydroxyazetidin-1-yl)pentan-2-yl)-N-methylbenzamide] | 2.50
CC(C)[C@@H](CN1CCC1)N(C)C(=O)c1ccc(Cl)cc1 [Example 5.1, (S)-N-(1-(Azetidin-1-yl)-3-methylbutan-2-yl)-4-chloro-N-methylbenzamide] | 1.00
Cc1cc(C(=O)N(C)[C@H](CN2CCC2)C2CC2)ccc1F [Example 4.1, (S)—N-(2-(Azetidin-1-yl)-1-cyclopropylethyl)-4-fluoro-N,3-dimethylbenzamide] | 0.74
CN(C(=O)c1ccc(C#N)cc1)[C@H](CN1CC(O)C1)C1CCC1 [Example 39.2, (S)-4-Cyano-N-(1-cyclobutyl-2-(3-hydroxyazetidin-1-yl)ethyl)-N-methylbenzamide] | 0.28
Cc1cc(C(=O)N(C)[C@H](CN2CC(O)C2)C2CCC2)ccc1F [Example 39.16, (S)—N-(1-Cyclobutyl-2-(3-hydroxyazetidin-1-yl)ethyl)-4-fluoro-N,3-dimethylbenzamide] | 0.24
CN(C(=O)c1ccc(Cl)cc1)[C@H](CN1CC(O)C1)C1CC1 [Example 7.2, (S)-4-Chloro-N-(1-cyclopropyl-2-(3-hydroxyazetidin-1-yl)ethyl)-N-methylbenzamide] | 1.00
CCC[C@@H](CN1CC(O)C1)N(C)C(=O)c1ccc(Cl)cc1 [Example 8.2, (S)-4-Chloro-N-(1-(3-hydroxyazetidin-1-yl)pentan-2-yl)-N-methyl-benzamide, hydrochloride] | 0.34
Cc1cc(C(=O)N(C)[C@H](CN2CC(O)C2)C(C)C)ccc1F [Example 6.1, (S)-4-Fluoro-N-(1-(3-hydroxyazetidin-1-yl)-3-methylbutan-2-yl)-N,3-dimethylbenzamide] | 0.54
Cc1cc(C(=O)N(C)[C@H](CN2CC(O)C2)C2CC2)ccc1F [Example 7.1, (S)—N-(1-Cyclopropyl-2-(3-hydroxyazetidin-1-yl)ethyl)-4-fluoro-N,3-dimethylbenzamide] | 5.40
CCC[C@@H](CN1CCC1)N(C)C(=O)c1ccc(Cl)cc1 [Example 1.2, (S)-N-(1-(Azetidin-1-yl)pentan-2-yl)-4-chloro-N-methylbenzamide] | 0.40
CC[C@@H](CN1CC(O)C1)N(C)C(=O)c1ccc(Cl)cc1 [Example 39.12, (S)-4-Chloro-N-(1-(3-hydroxyazetidin-1-yl)butan-2-yl)-N-methylbenzamide] | 2.06
CCC[C@@H](CN1CC(O)C1)N(C)C(=O)c1ccc(F)c(F)c1 [Example 8.1, (S)-3,4-Difluoro-N-(1-(3-hydroxyazetidin-1-yl)pentan-2-yl)-N-methylbenzamide] | 0.87
CC[C@H](C)[C@@H](CN1CC(O)C1)N(C)C(=O)c1ccc(C#N)cc1F [Example 29.7, 4-Cyano-2-fluoro-N-((2S,3S)-1-(3-hydroxyazetidin-1-yl)-3-methylpentan-2-yl)-N-methylbenzamide] | 0.79
CCCC[C@@H](CN1CC(O)C1)N(C)C(=O)c1ccc(F)cc1 [Example 33.7, 4-Fluoro-N-[(2S)-1-(3-hydroxyazetidin-1-yl)hexan-2-yl]-N-methylbenzamide] | 0.80

SMILES | Ceu 20 ms [µM]
CC(C)C[C@@H](CN1CC(O)C1)N(C)C(=O)c1ccc(Cl)cc1 [Example 38.2, 4-Chloro-N-[(2S)-1-(3-hydroxyazetidin-1-yl)-4-methylpentan-2-yl]-N-methylbenzamide] | 0.38
CN(C(=O)c1ccc(Cl)cc1)[C@H](CN1CC(O)C1)C1CCC1 [Example 39.14, (S)-4-Chloro-N-(1-cyclobutyl-2-(3-hydroxyazetidin-1-yl)ethyl)-N-methylbenzamide] | 0.10
CN(C(=O)c1ccc(Br)cc1)[C@H](CN1CC(O)C1)C1CC1 [Example 4.4, (S)-4-Bromo-N-(1-cyclopropyl-2-(3-hydroxyazetidin-1-yl)ethyl)-N-methylbenzamide] | 0.75
CCC[C@@H](CN1CCC1)N(C)C(=O)c1ccc(F)c(C)c1 [Example 1.4, (S)-N-(1-(Azetidin-1-yl)pentan-2-yl)-4-fluoro-N,3-dimethyl-benzamide] | 0.60
Cc1cccc(C(=O)N(C)[C@H](CN2CCCC2)C(C)C)c1 [Example 12.2, (S)-1-(2-(N,3-Dimethylbenzamido)-3-methylbutyl)pyrrolidinium 2,3-dihydroxysuccinate] | 2.20
CC(C)[C@@H](CN1CCCC1)N(C)C(=O)c1ccc(F)c(Cl)c1 [Example 16.55, (S)-3-Chloro-4-fluoro-N-methyl-N-(3-methyl-1-(pyrrolidin-1-yl)butan-2-yl)benzamide] | 0.60
CC(C)[C@@H](CN1CCCC1)N(C)C(=O)c1ccc(Br)cc1 [Example 19, (S)-1-(2-(4-bromo-N-methylbenzamido)-3-methylbutyl)pyrrolidinium 3-carboxy-2,3-dihydroxypropanoate] | 0.34
CN(C(=O)c1ccc(F)c(Cl)c1)[C@H](CN1CC(O)C1)C1CC1 [Example 7.3, (S)-3-Chloro-N-(1-cyclopropyl-2-(3-hydroxyazetidin-1-yl)ethyl)-4-fluoro-N-methylbenzamide] | 2.10
CC(C)[C@@H](CN1CCCC1)N(C)C(=O)c1ccc(F)cc1Cl [Example 1.17, (S)-2-Chloro-4-fluoro-N-methyl-N-(3-methyl-1-(pyrrolidin-1-yl)butan-2-yl)benzamide] | 1.40
CC(C)[C@@H](CN1CCC1)N(C)C(=O)c1ccc(Br)cc1.O=C(O)CCC(=O)O [Example 5.2] | 0.60
CC(C)[C@@H](CN1CC[C@H](O)C1)N(C)C(=O)c1ccc(Cl)cc1 [Example 10.2, 4-Chloro-N-((S)-1-((S)-3-hydroxypyrrolidin-1-yl)-3-methylbutan-2-yl)-N-methylbenzamide hemi tartrate] | 1.40
Cc1cc(C(=O)N(C)[C@H](CN2CCCC2)C(C)C)ccc1F [Example 12.1, (S)-4-Fluoro-N,3-dimethyl-N-(3-methyl-1-(pyrrolidin-1-yl)butan-2-yl)benzamide-dihydroxysuccinate] | 0.68
CC(C)[C@@H](CN1CCCC1)N(C)C(=O)c1ccc(Cl)cc1 [Example 18, (S)-1-(2-(4-Chloro-N-methylbenzamido)-3-methylbutyl)pyrrolidinium chloride] | 0.70
CCCC[C@@H](CN1CC(O)C1)N(C)C(=O)c1ccc(C#N)cc1 [Example 33.4, 4-Cyano-N-[(2S)-1-(3-hydroxyazetidin-1-yl)hexan-2-yl]-N-methylbenzamide] | 0.52
CC(C)C[C@@H](CN1CC(O)C1)N(C)C(=O)c1ccc(F)c(F)c1 [Example 38.1, 3,4-Difluoro-N-[(2S)-1-(3-hydroxyazetidin-1-yl)-4-methylpentan-2-yl]-N-methylbenzamide] | 0.34
